Target: T1, human DP2 receptor (Homo sapiens, UniProt Q9Y5Y4)
T1 construct: expressed in transfected cells; host or cells: CHO-K1 FLP-In (Invitrogen, catalog no. R758-07), stably transfected
T1 sequence (Q9Y5Y4 1-395): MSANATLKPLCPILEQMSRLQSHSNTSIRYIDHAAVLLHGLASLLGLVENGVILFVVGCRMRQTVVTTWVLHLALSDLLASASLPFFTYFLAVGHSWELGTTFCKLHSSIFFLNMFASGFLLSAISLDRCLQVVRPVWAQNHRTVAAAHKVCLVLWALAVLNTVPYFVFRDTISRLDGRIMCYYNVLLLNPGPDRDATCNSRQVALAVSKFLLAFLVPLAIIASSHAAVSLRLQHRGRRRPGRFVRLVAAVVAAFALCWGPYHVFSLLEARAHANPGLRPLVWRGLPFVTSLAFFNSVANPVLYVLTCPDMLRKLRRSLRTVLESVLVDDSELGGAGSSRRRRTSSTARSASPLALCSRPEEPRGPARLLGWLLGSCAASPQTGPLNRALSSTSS
Assay: Prostaglandin D2 binding inhibition assay (scintillation proximity assay, 3H PGD2, membranes of transfected CHO cells)
Conditions: SPA, 5.5 nM 3H PGD2, CHO-K1 FLP-In human DP2 membranes; upper limit determinable 30 μM; read-out: IC50 ranges for inhibition of PGD2 binding to human DP2
Summary of the method: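 Membranes (5 μg) from CHO-K1 cells stably expressing human DP2 were mixed with WGA SPA beads and 5.5 nM 3H PGD2 in Tris buffer with 10 mM MgCl2, 100 mM NaCl, 0.1% BSA, plus compound. After 60 min at room temperature, CPM were read; IC50 from two-parameter nonlinear regression.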

Row | Structure (SMILES) | IC50 [µM]
1 | O=C(O)Cn1c(=O)n([C@@H]2CCN(S(=O)(=O)c3ccc(F)cc3Cl)C2)c2ncccc21 [Compound 101, (R)-2-(3-(1-(2-chloro-4-fluorophenylsulfonyl)pyrrolidin-3-yl)-2-oxo-2,3-dihydro-1H-imidazo[4,5-b]pyridin-1-yl)acetic acid] | < 1
2 | O=C(O)Cn1c(=O)n([C@@H]2CCN(S(=O)(=O)c3ccc(Cl)cc3Cl)C2)c2ncccc21 [Compound 102, (R)-2-(3-(1-(2,4-dichlorophenylsulfonyl)pyrrolidin-3-yl)-2-oxo-2,3-dihydro-1H-imidazo[4,5-b]pyridin-1-yl)acetic acid] | < 1
3 | Cc1ccc(S(=O)(=O)N2CC[C@@H](n3c(=O)n(CC(=O)O)c4cccnc43)C2)c(F)c1 [Compound 103, (R)-2-(3-(1-(2-fluoro-4-methylphenylsulfonyl)pyrrolidin-3-yl)-2-oxo-2,3-dihydro-1H-imidazo[4,5-b]pyridin-1-yl)acetic acid] | < 1
4 | CS(=O)(=O)c1ccccc1S(=O)(=O)NC1CCC(n2c(=O)n(CC(=O)O)c3cccnc32)CC1 (stereo not shown) [Compound 104, 2-(3-(4-(2-(methylsulfonyl)phenylsulfonamido)cyclohexyl)-2-oxo-2,3-dihydro-1H-imidazo[4,5-b]pyridin-1-yl)acetic acid] | 1 to 10
5 | O=C(O)Cn1c(=O)n(C2CCC(NS(=O)(=O)c3ccc(F)cc3Cl)CC2)c2ncccc21 (stereo not shown) [Compound 105, 2-(3-(4-(2-chloro-4-fluorophenylsulfonamido)cyclohexyl)-2-oxo-2,3-dihydro-1H-imidazo[4,5-b]pyridin-1-yl)acetic acid] | 1 to 10
6 | O=C(O)Cn1c(=O)n(C2CCC(NS(=O)(=O)c3ccc(Cl)cc3Cl)CC2)c2ncccc21 (stereo not shown) [Compound 106, 2-(3-(4-(2,4-dichlorophenylsulfonamido)cyclohexyl)-2-oxo-2,3-dihydro-1H-imidazo[4,5-b]pyridin-1-yl)acetic acid] | 1 to 10
7 | Cc1ccc(S(=O)(=O)NC2CCC(n3c(=O)n(CC(=O)O)c4cccnc43)CC2)c(F)c1 (stereo not shown) [Compound 107, 2-(3-(4-(2-fluoro-4-methylphenylsulfonamido)cyclohexyl)-2-oxo-2,3-dihydro-1H-imidazo[4,5-b]pyridin-1-yl)acetic acid] | 1 to 10
8 | CS(=O)(=O)c1ccccc1S(=O)(=O)N1CCC[C@H](n2c(=O)n(CC(=O)O)c3cccnc32)C1 [Compound 108, (S)-2-(3-(1-(2-(methylsulfonyl)phenylsulfonyl)piperidin-3-yl)-2-oxo-2,3-dihydro-1H-imidazo[4,5-b]pyridin-1-yl)acetic acid] | 1 to 10
9 | O=C(O)Cn1c(=O)n([C@H]2CCCN(S(=O)(=O)c3ccc(Cl)cc3Cl)C2)c2ncccc21 [Compound 109, (S)-2-(3-(1-(2,4-dichlorophenylsulfonyl)piperidin-3-yl)-2-oxo-2,3-dihydro-1H-imidazo[4,5-b]pyridin-1-yl)acetic acid] | 1 to 10
10 | Cc1ccc(S(=O)(=O)N2CCC[C@H](n3c(=O)n(CC(=O)O)c4cccnc43)C2)c(F)c1 [Compound 110, (S)-2-(3-(1-(2-fluoro-4-methylphenylsulfonyl)piperidin-3-yl)-2-oxo-2,3-dihydro-1H-imidazo[4,5-b]pyridin-1-yl)acetic acid] | 1 to 10
11 | CS(=O)(=O)c1ccccc1S(=O)(=O)N1CCC(n2c(=O)n(CC(=O)O)c3cccnc32)C1 (stereo not shown) [Compound 111, 2-(3-(1-(2-(methylsulfonyl)phenylsulfonyl)pyrrolidin-3-yl)-2-oxo-2,3-dihydro-1H-imidazo[4,5-b]pyridin-1-yl)acetic acid] | < 1
12 | O=C(O)Cn1c(=O)n(C2CCN(S(=O)(=O)c3ccc(Cl)cc3Cl)C2)c2ncccc21 (stereo not shown) [Compound 112, 2-(3-(1-(2,4-dichlorophenylsulfonyl)pyrrolidin-3-yl)-2-oxo-2,3-dihydro-1H-imidazo[4,5-b]pyridin-1-yl)acetic acid] | 1 to 10
13 | CS(=O)(=O)c1ccccc1S(=O)(=O)N1CCC[C@@H](n2c(=O)n(CC(=O)O)c3cccnc32)C1 [Compound 113, (R)-2-(3-(1-(2-(methylsulfonyl)phenylsulfonyl)piperidin-3-yl)-2-oxo-2,3-dihydro-1H-imidazo[4,5-b]pyridin-1-yl)acetic acid] | < 1
14 | O=C(O)Cn1c(=O)n([C@@H]2CCCN(S(=O)(=O)c3ccc(F)cc3Cl)C2)c2ncccc21 [Compound 114, (R)-2-(3-(1-(2-chloro-4-fluorophenylsulfonyl)piperidin-3-yl)-2-oxo-2,3-dihydro-1H-imidazo[4,5-b]pyridin-1-yl)acetic acid] | < 1
15 | O=C(O)Cn1c(=O)n([C@@H]2CCCN(S(=O)(=O)c3ccc(Cl)cc3Cl)C2)c2ncccc21 [Compound 115, (R)-2-(3-(1-(2,4-dichlorophenylsulfonyl)piperidin-3-yl)-2-oxo-2,3-dihydro-1H-imidazo[4,5-b]pyridin-1-yl)acetic acid] | < 1
16 | Cc1ccc(S(=O)(=O)N2CCC[C@@H](n3c(=O)n(CC(=O)O)c4cccnc43)C2)c(F)c1 [Compound 116, (R)-2-(3-(1-(2-fluoro-4-methylphenylsulfonyl)piperidin-3-yl)-2-oxo-2,3-dihydro-1H-imidazo[4,5-b]pyridin-1-yl)acetic acid] | < 1
17 | Cc1ccnc2c1n(CC(=O)O)c(=O)n2C1CCN(S(=O)(=O)c2ccccc2S(C)(=O)=O)CC1 [Compound 117, 2-(7-methyl-3-(1-(2-(methylsulfonyl)phenylsulfonyl)piperidin-4-yl)-2-oxo-2,3-dihydro-1H-imidazo[4,5-b]pyridin-1-yl)acetic acid] | > 30
18 | Cc1ccc(S(=O)(=O)N2CCC(n3c(=O)n(CC(=O)O)c4c(C)ccnc43)CC2)c(F)c1 [Compound 118, 2-(3-(1-(2-fluoro-4-methylphenylsulfonyl)piperidin-4-yl)-7-methyl-2-oxo-2,3-dihydro-1H-imidazo[4,5-b]pyridin-1-yl)acetic acid] | > 30
19 | Cc1cc(F)ccc1S(=O)(=O)N1CCC(n2c(=O)n(CC(=O)O)c3c(C)ccnc32)CC1 [Compound 119, 2-(3-(1-(4-fluoro-2-methylphenylsulfonyl)piperidin-4-yl)-7-methyl-2-oxo-2,3-dihydro-1H-imidazo[4,5-b]pyridin-1-yl)acetic acid] | > 30
20 | Cc1ccnc2c1n(CC(=O)O)c(=O)n2C1CCN(S(=O)(=O)c2ccc(F)cc2Cl)CC1 [Compound 120, 2-(3-(1-(2-chloro-4-fluorophenylsulfonyl)piperidin-4-yl)-7-methyl-2-oxo-2,3-dihydro-1H-imidazo[4,5-b]pyridin-1-yl)acetic acid] | > 30
21 | Cc1ccnc2c1n(CC(=O)O)c(=O)n2C1CCN(S(=O)(=O)c2ccccc2Cl)CC1 [Compound 121, 2-(3-(1-(2-chlorophenylsulfonyl)piperidin-4-yl)-7-methyl-2-oxo-2,3-dihydro-1H-imidazo[4,5-b]pyridin-1-yl)acetic acid] | > 30
22 | Cc1ccnc2c1n(CC(=O)O)c(=O)n2C1CCN(S(=O)(=O)c2ccc(Cl)cc2Cl)CC1 [Compound 122, 2-(3-(1-(2,4-dichlorophenylsulfonyl)piperidin-4-yl)-7-methyl-2-oxo-2,3-dihydro-1H-imidazo[4,5-b]pyridin-1-yl)acetic acid] | > 30
23 | Cc1cnc2c(c1)n(CC(=O)O)c(=O)n2C1CCN(S(=O)(=O)c2ccccc2S(C)(=O)=O)CC1 [Compound 123, 2-(6-methyl-3-(1-(2-(methylsulfonyl)phenylsulfonyl)piperidin-4-yl)-2-oxo-2,3-dihydro-1H-imidazo[4,5-b]pyridin-1-yl)acetic acid] | > 30
24 | Cc1ccc(S(=O)(=O)N2CCC(n3c(=O)n(CC(=O)O)c4cc(C)cnc43)CC2)c(F)c1 [Compound 124, 2-(3-(1-(2-fluoro-4-methylphenylsulfonyl)piperidin-4-yl)-6-methyl-2-oxo-2,3-dihydro-1H-imidazo[4,5-b]pyridin-1-yl)acetic acid] | 1 to 10
25 | Cc1cnc2c(c1)n(CC(=O)O)c(=O)n2C1CCN(S(=O)(=O)c2ccc(F)cc2C)CC1 [Compound 125, 2-(3-(1-(4-fluoro-2-methylphenylsulfonyl)piperidin-4-yl)-6-methyl-2-oxo-2,3-dihydro-1H-imidazo[4,5-b]pyridin-1-yl)acetic acid] | 10 to 30
26 | Cc1cnc2c(c1)n(CC(=O)O)c(=O)n2C1CCN(S(=O)(=O)c2ccc(F)cc2Cl)CC1 [Compound 126, 2-(3-(1-(2-chloro-4-fluorophenylsulfonyl)piperidin-4-yl)-6-methyl-2-oxo-2,3-dihydro-1H-imidazo[4,5-b]pyridin-1-yl)acetic acid] | 10 to 30
27 | Cc1cnc2c(c1)n(CC(=O)O)c(=O)n2C1CCN(S(=O)(=O)c2ccccc2Cl)CC1 [Compound 127, 2-(3-(1-(2-chlorophenylsulfonyl)piperidin-4-yl)-6-methyl-2-oxo-2,3-dihydro-1H-imidazo[4,5-b]pyridin-1-yl)acetic acid] | 1 to 10
28 | O=C(O)Cn1c(=O)n(C2CCN(S(=O)(=O)c3ccc(F)cc3Cl)CC2)c2cccnc21 [Compound 132, 2-(1-(1-(2-chloro-4-fluorophenylsulfonyl)piperidin-4-yl)-2-oxo-1H-imidazo[4,5-b]pyridin-3(2H)-yl)acetic acid] | > 30
